Patent US6992193B2, “Sulfonylamino phenylacetamide derivatives and methods of their use” (Adolor Corporation, priority 2003, dated 2006)
pEC50, pIC50, pKi: −log10 of the molar value. Structures can show the parent of a compound that is named as a salt. Where two headings read alike, the source gives them in different places.

Key:
cloned human κ receptors = target: T1, cloned human κ receptors (Homo sapiens, UniProt P41145); assay: [35S]GTPγS binding stimulation, membranes containing cloned human κ receptors; format: biochemical; settings: half-maximal stimulation of [35S]GTPγS binding, cloned human κ receptor
T1 construct: expressed in transfected cells
Experimental: The potencies of the agonists were assessed by their abilities to stimulate [^35S]GTPγS binding to membranes containing the cloned human κ receptors.
To determine the EC50 value, which was the concentration to give half-maximal stimulation of [^35S]GTPγS binding, the amount of [^35S]GTPγS bound in the presence of various concentrations of agonists was measured. The EC50 value was then determined.

CYP2D6 = target: T2, CYP2D6 (Homo sapiens, UniProt P10635); assay: Inhibition of CYP2D6 catalyzed conversion of MAMC to HAMC; format: in vitro ADME; settings: MAMC to HAMC conversion; for pIC50: read-out: IC50(CYP2D6)
T2 construct: purchased BD Biosciences
Experimental: Inhibition of CYP2D6 Catalyzed Conversion of MAMC to HAMC
Microsomes containing baculovirus expressed human recombinant CYP2D6 and MAMC were purchased from BD Biosciences. The method is a modification of the method provided by BD Biosciences.
• Assay Buffer=50 mM KPO4, 15 μg/mL NADP^+, 0.30 mg/mL glucose-6-phosphate, 0.20 mg/mL MgCl2, 0.96 U/mL glucose-6-phosphate dehydrogenase, 2.5 μM MAMC, pH 7.4. • Dilution Buffer=50 mM KPO4, pH 7.4 • Enzyme Buffer=150 mM KPO4, pH 7.4 • Stop Solution=80% acetonitrile, 20% 0.5 M Tris Base Procedure:
The assays were done in black 96 well plates (VWR Cat# 22221-572) and contained: 40 μL assay buffer, 10 μL test compound in dilution buffer and 50 μL of 10-15 pmol/mL CYP2D6 in enzyme buffer. Final concentrations: (100 mM KPO4, pH 7.4, 7.9 μM NADP^+, 0.36 mM glucose-6-phosphate, 0.4 mM MgCl2, 0.38 U/mL glucose-6-phosphate dehydrogenase, 1 μM MAMC (BD Biosciences), 0.5 pmol CYP2D6 (BD Biosciences))
For large experiments, assay buffer and test compound were added using the MiniTrak IV (Packard Biosciences), otherwise they were added using 25-250 μL and 5-100 μL 8 channel electronic pipettors (BioHit). CYP2D6 was added using 25-250 μL 8 channel electronic pipettor.
Titrations are done in either 96 well deep-well plates (Beckman) or 96 well microtiter plates (Costar), an initial dilution in dilution buffer is prepared from stock solutions in DMSO to start either 8 (1:6) or 12 (1:3.15) serial dilutions. For 1:6 dilutions, 50 μL for each dilution is transferred to 250 μL dilution buffer. For 1:3.15 dilutions, 50 μL for each dilution is transferred to 108 μL dilution buffer. Further details on concentrations will be provided in each experiment. Titrations are done using either 25-250 μL 8 channel electronic pipettor, 30-300 μL 12 channel manual pipettor (Spectrum), or the Multiprobe II. For screening, dilution plates are prepared in dilution buffer in 96 well microtiter plates from masterplates in 100% DMSO using the Multiprobe II or MiniTrak IV. After assay buffer and test compound has been added, the plates and the enzyme buffer are prewarmed at 37° C. for 15 minutes. After prewarming, CYP2D6 is added to then enzyme buffer and then added to the assay plate using 25-250 μL 8 channel electronic pipettor and the plates are incubated for 15 minutes at 37° C. After incubation, 50 μL stop solution is added using 25-250 μL 8 channel electronic pipettor. The plates are then counted on the Fusion (Packard Biosciences) for 4 sec/well using and excitation filter of 390 nm and an emission filter of 460 nm, intensity setting of 1, high detector sensitivity.
Non-specific relative fluorescent units (RFU) are determined in the presence of 10 μM quinidine in wells A1, B1, and C1 of each plate and total RFU determined in wells D1, E1, F1 in the absence of test compound. Specific HAMC production is the difference between total and nonspecific. For each compound, a percent inhibition of HAMC production is calculated by: % I=(1−(A/B))*100 • where A=cpm specifically bound for test compound • B=cpm specifically bound in the absence of test compound For experiments where the plates are registered in the biological database, % I is determined automatically by the biological database. Titrations
IC50's are calculated using nonlinear regression to a one-site model using GraphPad Prism or a VB algorithm fitting the data to that equation.

[1] = target: T3, cloned human κ opioid receptor (Homo sapiens, UniProt P41145); assay: [3H]diprenorphine binding to cloned human κ opioid receptor
T3 construct: expressed in transfected cells
Experimental: (§1) IC50 values were obtained by nonlinear analysis of the data using GraphPad Prism version 3.00 for Windows (GraphPad Software, San Diego). Ki values were obtained by Cheng-Prusoff corrections of IC50 values.
(§2) After dilution in buffer A and homogenization as before, membrane proteins (10-80 μg) in 250 μL were added to mixtures containing test compound and [^3H]diprenorphine (0.5 to 1.0 nM, 40,000 to 50,000 dpm) in 250 μL of buffer A in 96-well deep-well polystyrene titer plates (Beckman). After incubation at room temperature for one hour, the samples were filtered through GF/B filters that had been presoaked in a solution of 0.5% (w/v) polyethylenimine and 0.1% (w/v) bovine serum albumin in water. The filters were rinsed 4 times with 1 mL of cold 50 mM Tris HCl, pH 7.8 and radioactivity remaining on the filters determined by scintillation spectroscopy. Nonspecific binding was determined by the minimum values of the titration curves and was confirmed by separate assay wells containing 10 μM naloxone.
(§3) To determine the equilibrium dissociation constant for the inhibitors (Ki), radioligand bound (cpm) in the presence of various concentrations of test compounds was measured. […] The nonlinear regression fit was performed using the program Prism® (GraphPad Software, San Diego, Calif.).

CYP3A4 = CYP3A4 (Homo sapiens, UniProt P08684); assay: Inhibition of CYP3A4 conversion of dibenzylfluorescein to fluorescein; format: in vitro ADME; settings: DBF to fluorescein conversion; read-out: IC50(CYP3A4)
Experimental: (§4) Inhibition of CYP2C9 and CYP3A4
(§5) These assays were carried out as described using CYP2C9 and CYP3A4 conversion of dibenzylfluorescein (DBF) to fluorescein (F).

CYP2C9 = CYP2C9 (Homo sapiens, UniProt P11712); assay: Inhibition of CYP2C9 conversion of dibenzylfluorescein to fluorescein; format: in vitro ADME; settings: DBF to fluorescein conversion; read-out: IC50(CYP2C9)
Experimental: as §4, §5

[2] = target: T4, cloned human δ opioid receptor (Homo sapiens, UniProt P41143); assay: [3H]diprenorphine binding to cloned human δ opioid receptor
T4 construct: expressed in transfected cells
Experimental: as §1, §2
as §3, with “Calif.). The Ki values were then determined from the […] values by the following equation, [formula] • where [ligand] is the concentration of radioligand; and • Kd is the equilibrium dissociation constant for the radioligand.” for “Calif.).”

[3] = target: T5, cloned human μ opioid receptor (Homo sapiens, UniProt P35372); assay: [3H]diprenorphine binding to cloned human μ opioid receptor
T5 construct: expressed in transfected cells
Experimental: as §1, §2
as §3, with “Calif.). The Ki values were then determined from the […] values by the following equation, [formula] • where [ligand] is the concentration of radioligand; and • Kd is the equilibrium dissociation constant for the radioligand.” for “Calif.).”

[4] = test system: cytochrome P450 enzymes (CYP2D6, CYP3A4, CYP2C9); assay: Overall evaluation of inhibition of major drug metabolizing hepatic cytochrome P450 enzymes; format: in vitro ADME, human
[5] = inhibition of [3H]diprenorphine binding, cloned human μ receptor, read-out: Ki(μ)

T4 sequence (P41143 whole entry): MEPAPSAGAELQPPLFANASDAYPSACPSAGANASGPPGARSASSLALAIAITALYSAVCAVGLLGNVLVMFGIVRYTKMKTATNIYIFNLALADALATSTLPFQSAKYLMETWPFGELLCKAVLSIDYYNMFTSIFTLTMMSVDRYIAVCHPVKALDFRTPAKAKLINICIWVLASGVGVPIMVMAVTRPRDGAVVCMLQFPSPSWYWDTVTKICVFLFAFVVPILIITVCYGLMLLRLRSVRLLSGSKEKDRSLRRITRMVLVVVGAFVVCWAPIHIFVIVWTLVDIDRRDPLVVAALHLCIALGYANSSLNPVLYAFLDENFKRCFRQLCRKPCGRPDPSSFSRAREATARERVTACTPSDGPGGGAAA
T5 sequence (P35372 whole entry): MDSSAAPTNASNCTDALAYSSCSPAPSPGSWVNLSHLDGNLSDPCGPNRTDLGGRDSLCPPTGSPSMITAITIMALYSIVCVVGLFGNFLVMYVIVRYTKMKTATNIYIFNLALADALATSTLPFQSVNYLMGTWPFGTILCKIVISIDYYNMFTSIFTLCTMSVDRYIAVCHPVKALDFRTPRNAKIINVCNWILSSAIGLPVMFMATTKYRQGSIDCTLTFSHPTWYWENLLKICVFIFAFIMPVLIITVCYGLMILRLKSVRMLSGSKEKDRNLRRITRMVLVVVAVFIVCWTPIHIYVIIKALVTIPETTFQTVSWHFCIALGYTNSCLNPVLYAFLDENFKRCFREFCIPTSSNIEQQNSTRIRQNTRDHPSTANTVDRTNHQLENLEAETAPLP
Sequence of CYP3A4 (P08684 whole entry): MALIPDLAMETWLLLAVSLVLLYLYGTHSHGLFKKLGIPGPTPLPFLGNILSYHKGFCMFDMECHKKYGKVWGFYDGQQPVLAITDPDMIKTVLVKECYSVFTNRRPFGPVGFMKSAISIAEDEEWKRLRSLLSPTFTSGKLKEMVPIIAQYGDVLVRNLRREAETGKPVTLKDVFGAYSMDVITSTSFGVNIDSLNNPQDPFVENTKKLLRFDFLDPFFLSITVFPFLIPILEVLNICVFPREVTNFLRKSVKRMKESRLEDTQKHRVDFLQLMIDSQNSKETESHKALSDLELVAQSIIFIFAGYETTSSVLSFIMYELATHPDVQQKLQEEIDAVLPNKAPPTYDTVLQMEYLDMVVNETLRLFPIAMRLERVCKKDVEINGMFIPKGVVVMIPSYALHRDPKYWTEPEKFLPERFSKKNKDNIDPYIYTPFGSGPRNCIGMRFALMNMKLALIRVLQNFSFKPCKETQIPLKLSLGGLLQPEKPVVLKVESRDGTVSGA
T3 sequence (P41145 whole entry): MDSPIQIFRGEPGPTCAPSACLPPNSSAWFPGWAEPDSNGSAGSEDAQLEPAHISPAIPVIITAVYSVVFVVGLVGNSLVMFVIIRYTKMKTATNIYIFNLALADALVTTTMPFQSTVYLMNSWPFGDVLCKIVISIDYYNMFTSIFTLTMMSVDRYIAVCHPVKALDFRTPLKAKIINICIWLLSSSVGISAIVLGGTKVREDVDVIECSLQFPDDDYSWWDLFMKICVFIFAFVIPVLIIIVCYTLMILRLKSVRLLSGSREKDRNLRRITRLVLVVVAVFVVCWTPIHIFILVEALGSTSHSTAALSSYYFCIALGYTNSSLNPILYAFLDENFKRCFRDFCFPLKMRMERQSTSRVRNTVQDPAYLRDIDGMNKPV
T1 sequence (P41145 whole entry): as above
T2 sequence (P10635 whole entry): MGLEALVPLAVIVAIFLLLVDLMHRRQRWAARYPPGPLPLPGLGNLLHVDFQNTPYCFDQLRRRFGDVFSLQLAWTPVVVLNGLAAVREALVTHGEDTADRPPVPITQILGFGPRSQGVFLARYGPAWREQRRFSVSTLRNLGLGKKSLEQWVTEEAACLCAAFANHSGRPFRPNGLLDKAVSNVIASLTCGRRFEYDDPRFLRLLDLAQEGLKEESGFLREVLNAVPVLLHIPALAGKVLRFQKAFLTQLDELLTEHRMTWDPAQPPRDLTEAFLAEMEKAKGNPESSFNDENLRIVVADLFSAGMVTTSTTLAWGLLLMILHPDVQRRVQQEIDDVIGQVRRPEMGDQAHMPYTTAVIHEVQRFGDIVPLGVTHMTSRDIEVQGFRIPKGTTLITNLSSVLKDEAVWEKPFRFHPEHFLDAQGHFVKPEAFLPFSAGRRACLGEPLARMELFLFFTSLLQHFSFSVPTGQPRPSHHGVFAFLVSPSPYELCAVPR
Sequence of CYP2C9 (P11712 whole entry): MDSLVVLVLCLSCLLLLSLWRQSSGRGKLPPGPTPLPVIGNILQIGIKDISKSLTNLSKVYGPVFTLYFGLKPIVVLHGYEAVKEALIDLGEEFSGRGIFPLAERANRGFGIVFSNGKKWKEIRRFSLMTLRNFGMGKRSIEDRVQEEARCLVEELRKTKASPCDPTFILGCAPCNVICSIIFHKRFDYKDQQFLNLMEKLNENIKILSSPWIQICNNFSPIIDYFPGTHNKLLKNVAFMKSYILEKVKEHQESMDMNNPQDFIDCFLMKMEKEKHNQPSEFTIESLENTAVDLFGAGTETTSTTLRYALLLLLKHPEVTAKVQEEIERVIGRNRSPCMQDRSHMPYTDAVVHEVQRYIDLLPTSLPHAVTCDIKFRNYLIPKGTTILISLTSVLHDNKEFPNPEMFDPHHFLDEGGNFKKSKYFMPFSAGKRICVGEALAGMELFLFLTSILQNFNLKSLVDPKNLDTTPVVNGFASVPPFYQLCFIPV

CN(C(=O)Cc1ccc(CNS(=O)(=O)c2cccs2)cc1)[C@H](CN1CC[C@H](O)C1)c1ccccc1 [Example 22, N-{2-[3-(S)-hydroxy-pyrrolidin-1-yl]-1-(S)-Phenyl-ethyl}-N-methyl-2-{4-[(thiophene-2-sulfonylamino)-methyl]-phenyl}-acetamide hydrochloride]
pEC50 (cloned human κ receptors): 8.31
pIC50 (CYP2D6): 5.24
pKi [1]: 8.54
pIC50 (CYP3A4): 5.36
pIC50 (CYP2C9): < 5.00
pKi [2]: 7.25
pKi [3]: 5.96

Cc1noc(C)c1S(=O)(=O)NCc1ccc(CC(=O)N(C)[C@H](CN2CC[C@H](O)C2)c2ccccc2)cc1 [Example 23, 2-{4-[(3,5-dimethyl-isoxazole-4-sulfonylamino)-methyl]-phenyl}-N-{2-[3-(S)-hydroxy-pyrrolidin-1-yl]-1-(S)-phenyl-ethyl}-N-methyl-acetamide hydrochloride]
pEC50 (cloned human κ receptors): 7.28
pIC50 (CYP2D6): 4.96
pKi [1]: 7.60
pIC50 (CYP3A4): 5.37
pIC50 (CYP2C9): < 5.00
pKi [2]: 6.49
pKi [3]: 5.85

CN(C(=O)Cc1ccc(CN(C)S(C)(=O)=O)cc1)[C@H](CN1CC[C@H](O)C1)c1ccccc1.Cl [Example 24, N-{2-[3-(S)-hydroxy-pyrrolidin-1-yl]-1-(S)-phenyl-ethyl}-2-{4-[(methanesulfonyl-methyl-amino)-methyl]-phenyl}-N-methyl-acetamide hydrochloride]
pEC50 (cloned human κ receptors): 7.26
pIC50 (CYP2D6): < 5.00
activity toward the cytochrome P450 (summary in words) [4]: metabolically stable in regard to their activity toward the cytochrome P450
pKi [1]: 7.85
pIC50 (CYP3A4): < 5.00
pIC50 (CYP2C9): < 5.00
pKi [2]: 6.27
pKi [3]: 6.70

CN(C(=O)Cc1ccc(CCNS(C)(=O)=O)cc1)[C@H](CN1CC[C@H](O)C1)c1ccccc1.Cl [Example 26, N-{2-[3-(S)-hydroxy-pyrrolidin-1-yl]-1-(S)-phenyl-ethyl}-2-[4-(2-methanesulfonylamino-ethyl)-phenyl]-N-methyl-acetamide hydrochloride]
IC50 at 15 min (CYP2D6; human, pH 7.4, probe MAMC (1 µM)): 10000 nM
activity toward the cytochrome P450 (summary in words) [4]: metabolically stable in regard to their activity toward the cytochrome P450
pIC50 (CYP3A4): < 5.00
pIC50 (CYP2C9): < 5.00
pKi [2]: 6.96
pKi [3, 5]: 6.10

CN(C(=O)Cc1ccc(CCCNS(C)(=O)=O)cc1)[C@H](CN1CC[C@H](O)C1)c1ccccc1.Cl [Example 27, N-{2-[3-(S)-hydroxy-pyrrolidin-1-yl]-1-(S)-phenyl-ethyl}-2-[4-(3-methanesulfonylamino-propyl)-phenyl]-N-methyl-acetamide hydrochloride]
pIC50 (CYP2D6): < 5.00
activity toward the cytochrome P450 (summary in words) [4]: metabolically stable in regard to their activity toward the cytochrome P450
pIC50 (CYP3A4): < 5.00
pIC50 (CYP2C9): < 5.00
pKi ([2]; inhibition of [3H]diprenorphine binding, cloned human δ receptor, read-out: Ki(δ)): 6.62
pKi [3, 5]: 6.49

CC(C)[C@@H](CN1CC[C@H](O)C1)N(C)C(=O)Cc1ccc(CNS(C)(=O)=O)cc1.O=C(O)C(F)(F)F [Example 28, N-{1-[3-(S)-hydroxy-pyrrolidin-1-ylmethyl]-2-methyl-(S)-propyl}-2-[4-(methanesulfonylamino-methyl)-phenyl]-N-methyl-acetamide trifluoroacetate]
pEC50 (cloned human κ receptors): 7.10
pIC50 (CYP2D6): < 5.00
activity toward the cytochrome P450 (summary in words) [4]: metabolically stable in regard to their activity toward the cytochrome P450
pKi [1]: 8.21
pIC50 (CYP3A4): < 5.00
pIC50 (CYP2C9): < 5.00
pKi [2]: < 5.52
pKi [3]: < 5.52

CS(=O)(=O)NCc1ccc(CC(=O)N2CCCC[C@H]2CN2CC[C@H](O)C2)cc1.O=C(O)C(F)(F)F [Example 29, N-[4-(2-{2-[3-(S)-hydroxy-pyrrolidin-1-ylmethyl]-(S)-piperidin-1-yl}-2-oxo-ethyl)-benzyl]-methanesulfonamide trifluoroacetate]
pEC50 (cloned human κ receptors): 7.57
pIC50 (CYP2D6): < 5.00
activity toward the cytochrome P450 (summary in words) [4]: metabolically stable in regard to their activity toward the cytochrome P450
pKi [1]: 8.68
pIC50 (CYP3A4): < 5.00
pIC50 (CYP2C9): < 5.00
pKi [2]: < 5.52
pKi [3]: < 5.52
